We go through 3 compounds from patent US20180280302A1, “SOLID DISPERSIONS OF COMPOUNDS USING POLYVINYL ALCOHOL AS A CARRIER POLYMER” (MERCK PATENT GMBH, priority 2015, published 2018).

As a reminder, the pKa is the pH at which an ionisable group is half protonated.

For series [1] the following is noted: cited from earlier work.
Series [2] is described as follows: Dissolution of IBU compositions in SGFsp pH 1.2 (USP apparatus II, fiber-optic UV). It counts as physicochemical. To be noted: at 2 hours.
Procedure: All dissolution tests were conducted in a Vankel VK-7000 (Varian, Inc.) USP apparatus II (paddle) dissolution tester. The dissolution medium was maintained at 37° C. with a recirculating heater and a paddle speed of 75 RPM was constant throughout the test. The theoretical equivalent of 200 mg of IBU (1.0 g of KSD product) was added to each vessel containing 1 L of the dissolution medium (n=3). […] The dissolution medium recipe (SGFsp) consisted of 2.0 g NaCl and 80 ml of 0.1 N HCl in a total of 1 L of purified water (pH=1.2). The dissolution medium was degassed prior to testing by the heat/sonication method.
The concentration of IBU in solution during the 120 minute dissolution test (shown in Table 10) was measured once per minute using a Pion Spectra in-situ fiber-optic UV-diss system (Pion, Inc., Billerica, Mass.) with a 1 mm path length probe tip. Concentrations were determined by integrating the area under the UV absorption curve in a wavelength range of 216 to 222 nm with a baseline correction at 450 nm. Linearity was established over a range of 1.4 to 200 μg/ml with a correlation coefficient of 0.9992. A diluents consisting of 7:3 (V/V) SGFsp:Acetonitrile (HPLC grade, no UV absorption beyond 190 nm) was used to generate the IBU standard curve.

In the case of `Cc1ccnc2c1NC(=O)c1cccnc1N2C1CC1` [Nevirapine], the pKa in series [1] was 2.8.
`CC(C)Cc1ccc(C(C)C(=O)O)cc1` (stereo not drawn) [Pure Ibuprofen, Ibuprofen] had a final concentration in series [2] above 0.02 mg/mL.
Consider Acetriptan, for which, in series [1], the pKa is on record as 4.9.
